From US20150017667A1, “MEANS AND METHODS FOR ASSESSING LIVER DISORDERS” (BASF SE, priority 2012, published 2015)
Where two headings read alike, the source gives them in different places. Marks after values point to notes of the source that are not given here.

What was measured:
[1] = tested on: female rats; assay: 28-day repeated dose oral toxicity study (OECD 407) with GC-MS/LC-MS plasma metabolite profiling, female rats
Description: (§1) A group of each 5 male and female rats was dosed once daily with the indicated compounds (see Table 5, below for compounds, applied doses and administeration details) over 28 days.
(§2) Each dose group in the studies consisted of five rats per sex. Additional groups of each 5 male and female animals served as controls. Before starting the treatment period, animals, which were 62-64 days old when supplied, were acclimatized to the housing and environmental conditions for 7 days. All animals of the animal population were kept under the same constant temperature (20-24±3° C.) and the same constant humidity (30-70%). The animals of the animal population were fed ad libitum. The food to be used was essentially free of chemical or microbial contaminants. Drinking water was also offered ad libitum. Accordingly, the water was free of chemical and microbial contaminants as laid down in the European Drinking Water Directive 98/83/EG. The illumination period was 12 hours light followed by 12 hours darkness (12 hours light, from 6:00 to 18:00, and 12 hours darkness, from 18:00 to 6:00).
(§3) In the morning of day 7, 14, and 28, blood was taken from the retroorbital venous plexus from fasted anaesthetized animals. From each animal, 1 ml of blood was collected with EDTA as anticoagulant. The samples were centrifuged for generation of plasma. All plasma samples were covered with a N2 atmosphere and then stored at −80° C. until analysis.
(§4) For mass spectrometry-based metabolite profiling analyses plasma samples were extracted and a polar and a non-polar (lipid) fraction was obtained. For GC-MS analysis, the non-polar fraction was treated with methanol under acidic conditions to yield the fatty acid methyl esters. Both fractions were further derivatised with O-methyl-hydroxyamine hydrochloride and pyridine to convert Oxogroups to O-methyloximes and subsequently with a silylating agent before analysis. In LC-MS analysis, both fractions were reconstituted in appropriate solvent mixtures. HPLC was performed by gradient elution on reversed phase separation columns.
(§5) Following comprehensive analytical validation steps, the data for each analyte were normalized against data from pool samples. These samples were run in parallel through the whole process to account for process variability. The significance of treatment group values specific for sex, treatment duration and metabolite was determined by comparing means of the treated groups to the means of the respective untreated control groups using WELCH-test and quantified with treatment ratios versus control and p-values.

[2] = tested on: male rats; assay: 28-day repeated dose oral toxicity study (OECD 407) with GC-MS/LC-MS plasma metabolite profiling, male rats; type: in vivo, rat
Text: Drinking water was also offered ad libitum.
The samples were centrifuged for generation of plasma.

[3] = tested on: female rats; settings: rat, in vivo
Description: as §1, §2, §3, §4, §5

CC/C(=C(\c1ccccc1)c1ccc(OCCN(C)C)cc1)c1ccccc1 [Tamoxifen]
3-Methoxytyrosine, ratio versus control ([1]; day 7): 1.26* | 16-Methylheptadecanoic acid, ratio versus control ([1]; day 7): 0.73* | 17-Methyloctadecanoic acid, ratio versus control ([1]; day 7): 0.80* | Ketoleucine, ratio versus control ([1]; day 7): 0.92 | Normetanephrine, ratio versus control ([1]; day 7): 0.84 | Palmitoleic acid (C16:cis[9]1), ratio versus control ([1]; day 7): 0.91 | Phosphatidylcholine (C18:0,C20:3), ratio versus control ([1]; day 7): 0.81* | TAG (C18:1,C18:2,C18:3), ratio versus control ([1]; day 7): 2.78* | TAG (C42:9) (DAG-Fragment) (putative), ratio versus control ([1]; day 7): 0.56* | Threonine, ratio versus control ([1]; day 7): 1.17* | Uracil, ratio versus control ([1]; day 7): 0.86* | Xylitol, ratio versus control ([1]; day 7): 1.29* | TAG (C18:2,C18:2), ratio versus control ([1]; day 7 (Table 7a)): 3.21* | Lysophosphatidylcholine (C20:4), ratio versus control ([1]; day 7 (first line of this name, r15)): 0.92* | Lysophosphatidylcholine (C20:4), ratio versus control ([1]; day 7 (second line of this name, r16)): 0.88* | 3-Methoxytyrosine, ratio versus control ([1]; day 14): 1.61* | 16-Methylheptadecanoic acid, ratio versus control ([1]; day 14): 0.97 | 17-Methyloctadecanoic acid, ratio versus control ([1]; day 14): 0.92 | Ketoleucine, ratio versus control ([1]; day 14): 0.71* | Normetanephrine, ratio versus control ([1]; day 14): 1.15 | Palmitoleic acid (C16:cis[9]1), ratio versus control ([1]; day 14): 0.69* | Phosphatidylcholine (C18:0,C20:3), ratio versus control ([1]; day 14): 0.89* | TAG (C18:1,C18:2,C18:3), ratio versus control ([1]; day 14): 2.96* | TAG (C42:9) (DAG-Fragment) (putative), ratio versus control ([1]; day 14): 0.65* | Uracil, ratio versus control ([1]; day 14): 0.86* | Xylitol, ratio versus control ([1]; day 14): 1.63* | TAG (C18:2,C18:2), ratio versus control ([1]; day 14 (Table 7a)): 2.84* | Lysophosphatidylcholine (C20:4), ratio versus control ([1]; day 14 (first line of this name, r15)): 0.96* | Lysophosphatidylcholine (C20:4), ratio versus control ([1]; day 14 (second line of this name, r16)): 0.84* | 3-Methoxytyrosine, ratio versus control ([1]; day 28): 1.38* | 16-Methylheptadecanoic acid, ratio versus control ([1]; day 28): 0.78* | 17-Methyloctadecanoic acid, ratio versus control ([1]; day 28): 0.89* | Ketoleucine, ratio versus control ([1]; day 28): 0.77* | Normetanephrine, ratio versus control ([1]; day 28): 0.89 | Palmitoleic acid (C16:cis[9]1), ratio versus control ([1]; day 28): 0.60* | Phosphatidylcholine (C18:0,C20:3), ratio versus control ([1]; day 28): 0.88* | TAG (C18:1,C18:2,C18:3), ratio versus control ([1]; day 28): 2.18* | TAG (C42:9) (DAG-Fragment) (putative), ratio versus control ([1]; day 28): 0.81* | Threonine, ratio versus control ([1]; day 28): 0.98 | Uracil, ratio versus control ([1]; day 28): 0.64* | Xylitol, ratio versus control ([1]; day 28): 1.71* | TAG (C18:2,C18:2), ratio versus control ([1]; day 28 (Table 7a)): 2.20* | Lysophosphatidylcholine (C20:4), ratio versus control ([1]; day 28 (first line of this name, r15)): 0.91* | Lysophosphatidylcholine (C20:4), ratio versus control ([1]; day 28 (second line of this name, r16)): 0.81* | 16-Methylheptadecanoic acid change in plasma ([2]; m7): 0.58* | 17-Methyloctadecanoic acid change in plasma ([2]; m7): 0.61* | Campesterol change in plasma ([2]; m7): 0.59* | Lysophosphatidylcholine (C18:1) change in plasma ([2]; m7): 0.78* | Myristic acid (C14:0) change in plasma ([2]; m7): 0.65* | PC No 04 (putative) change in plasma ([2]; m7): 0.44* | Palmitoleic acid (C16:cis[9]1) change in plasma ([2]; m7): 0.57* | Phosphatidylcholine (C16:0,C20:4) change in plasma ([2]; m7): 0.87* | Phosphatidylcholine (C16:1,C18:2) change in plasma ([2]; m7): 0.76* | Phosphatidylcholine (C18:1,C18:2) change in plasma ([2]; m7): 0.79* | Phosphatidylcholine No 02 change in plasma ([2]; m7): 0.53* | Sphingomyelin (d18:1,C16:0) change in plasma ([2]; m7): 0.66* | Tyrosine change in plasma ([2]; m7): 0.77* | Unknown lipid (28000473) change in plasma ([2]; m7): 0.31* | Unknown lipid (68000034) change in plasma ([2]; m7): 0.74* | Uracil change in plasma ([2]; m7): 0.86* | beta-Sitosterol change in plasma ([2]; m7): 0.75* | Lysophosphatidylcholine (C20:4) change in plasma ([2]; m7, first of two rows with this name (r24)): 0.90* | Lysophosphatidylcholine (C20:4) change in plasma ([2]; m7, second of two rows with this name (r25)): 0.77* | 16-Methylheptadecanoic acid change in plasma ([2]; m14): 0.60* | 17-Methyloctadecanoic acid change in plasma ([2]; m14): 0.64* | Campesterol change in plasma ([2]; m14): 0.74* | Lysophosphatidylcholine (C18:1) change in plasma ([2]; m14): 0.84* | Myristic acid (C14:0) change in plasma ([2]; m14): 0.60* | PC No 04 (putative) change in plasma ([2]; m14): 0.56* | Palmitoleic acid (C16:cis[9]1) change in plasma ([2]; m14): 0.43* | Phosphatidylcholine (C16:0,C20:4) change in plasma ([2]; m14): 0.96* | Phosphatidylcholine (C16:1,C18:2) change in plasma ([2]; m14): 0.69* | Phosphatidylcholine (C18:1,C18:2) change in plasma ([2]; m14): 0.83* | Phosphatidylcholine No 02 change in plasma ([2]; m14): 0.60* | Sphingomyelin (d18:1,C16:0) change in plasma ([2]; m14): 0.73* | Tyrosine change in plasma ([2]; m14): 0.85* | Unknown lipid (28000473) change in plasma ([2]; m14): 0.46* | Unknown lipid (68000034) change in plasma ([2]; m14): 0.59* | Uracil change in plasma ([2]; m14): 0.75* | beta-Sitosterol change in plasma ([2]; m14): 0.83* | Lysophosphatidylcholine (C20:4) change in plasma ([2]; m14, first of two rows with this name (r24)): 0.89* | Lysophosphatidylcholine (C20:4) change in plasma ([2]; m14, second of two rows with this name (r25)): 0.79* | 16-Methylheptadecanoic acid change in plasma ([2]; m28): 0.48* | 17-Methyloctadecanoic acid change in plasma ([2]; m28): 0.48* | Campesterol change in plasma ([2]; m28): 0.55* | Lysophosphatidylcholine (C18:1) change in plasma ([2]; m28): 0.81* | Myristic acid (C14:0) change in plasma ([2]; m28): 0.61* | PC No 04 (putative) change in plasma ([2]; m28): 0.54* | Palmitoleic acid (C16:cis[9]1) change in plasma ([2]; m28): 0.32* | Phosphatidylcholine (C16:0,C20:4) change in plasma ([2]; m28): 0.97* | Phosphatidylcholine (C16:1,C18:2) change in plasma ([2]; m28): 0.74* | Phosphatidylcholine (C18:1,C18:2) change in plasma ([2]; m28): 0.99 | Phosphatidylcholine No 02 change in plasma ([2]; m28): 0.62* | Sphingomyelin (d18:1,C16:0) change in plasma ([2]; m28): 0.71* | Tyrosine change in plasma ([2]; m28): 0.86 | Unknown lipid (28000473) change in plasma ([2]; m28): 0.37* | Unknown lipid (68000034) change in plasma ([2]; m28): 0.45* | Uracil change in plasma ([2]; m28): 0.79* | beta-Sitosterol change in plasma ([2]; m28): 0.73* | Lysophosphatidylcholine (C20:4) change in plasma ([2]; m28, first of two rows with this name (r24)): 0.88* | Lysophosphatidylcholine (C20:4) change in plasma ([2]; m28, second of two rows with this name (r25)): 0.70* | 3-Methoxytyrosine, ratio versus control ([2]; plasma, day 7): 1.17* | Serine, ratio versus control ([2]; plasma, day 7): 1.17* | Xylitol, ratio versus control ([2]; plasma, day 7): 1.57* | Threonine, ratio versus control ([2]; plasma, day 7 (Table 7c)): 0.96 | 3-Methoxytyrosine, ratio versus control ([2]; plasma, day 14): 1.31* | Xylitol, ratio versus control ([2]; plasma, day 14): 2.05* | Threonine, ratio versus control ([2]; plasma, day 14 (Table 7c)): 1.22* | 3-Methoxytyrosine, ratio versus control ([2]; plasma, day 28): 1.39* | Xylitol, ratio versus control ([2]; plasma, day 28): 1.75* | Threonine, ratio versus control ([2]; plasma, day 28 (Table 7c)): 1.10* | Threonine, ratio versus control [3]: 1.05*
